Consider three compounds from ChEMBL document CHEMBL3351528, “Targeting dopamine D3 and serotonin 5-HT1A and 5-HT2A receptors for developing effective antipsychotics: synthesis, biological characterization, and behavioral studies” (J Med Chem, 2014).

Data set [1] relates to Heart. Briefly: Cardiotoxicity in Langendorff-perfused Sprague-Dawley rat heart assessed as atrioventricular conduction time at 10 uM (reference value: 41.98 +/- 2.55 ms). The data set is classed as toxicity, tissue-based.
Data set [2] relates to Heart. Briefly: Cardiotoxicity in Langendorff-perfused Sprague-Dawley rat heart assessed as heart rate at 0.01 uM (reference value: 296.25 +/- 13.61 bpm). The data set is classed as toxicity, tissue-based.
Data set [3] relates to Heart. Description: Cardiotoxicity in Langendorff-perfused Sprague-Dawley rat heart assessed as time duration of ventricular depolarization and repolarization at 0.01 uM (reference value: 71.61 +/- 4.21 ms). The data set is classed as toxicity, tissue-based.
In data set [4] the test system is Heart. Description: Cardiotoxicity in Langendorff-perfused Sprague-Dawley rat heart assessed as intraventricular conduction time at 0.01 uM (reference value: 12.33 +/- 0.29 ms). The class given is toxicity, tissue-based, Cardiac ventricle.
Data set [5] relates to Heart. Description: Cardiotoxicity in Langendorff-perfused Sprague-Dawley rat heart assessed as heart rate at 0.1 uM (reference value: 296.25 +/- 13.61 bpm). The class given is toxicity, tissue-based.
Data set [6] concerns Heart. Description: Cardiotoxicity in Langendorff-perfused Sprague-Dawley rat heart assessed as cycle length time at 0.01 uM (reference value: 203.61 +/- 9.17 ms). The data set is classed as toxicity, tissue-based.
In data set [7] the test system is Heart. Briefly: Cardiotoxicity in Langendorff-perfused Sprague-Dawley rat heart assessed as atrioventricular conduction time at 1 uM (reference value: 41.98 +/- 2.55 ms). The data set is classed as toxicity, tissue-based.
Data set [8] deals with Heart. Description: Cardiotoxicity in Langendorff-perfused Sprague-Dawley rat heart assessed as heart rate at 1 uM (reference value: 296.25 +/- 13.61 bpm). The data set is classed as toxicity, tissue-based.
Data set [9] has as its system Heart. Briefly: Cardiotoxicity in Langendorff-perfused Sprague-Dawley rat heart assessed as corrected time duration of ventricular depolarization and repolarization at 0.1 uM (reference value: 159.41 +/- 11.21 ms). The data set is classed as toxicity, tissue-based.
Data set [10] relates to Heart. Description: Cardiotoxicity in Langendorff-perfused Sprague-Dawley rat heart assessed as atrioventricular conduction time at 0.01 uM (reference value: 41.98 +/- 2.55 ms). The class given is toxicity, tissue-based.
For data set [11], the system named is Heart. Briefly: Cardiotoxicity in Langendorff-perfused Sprague-Dawley rat heart assessed as atrioventricular conduction time at 0.1 uM (reference value: 41.98 +/- 2.55 ms). The class given is toxicity, tissue-based.
Data set [12] concerns Heart. Briefly: Cardiotoxicity in Langendorff-perfused Sprague-Dawley rat heart assessed as intraventricular conduction time at 10 uM (reference value: 12.33 +/- 0.29 ms). The data set is classed as toxicity, tissue-based, Cardiac ventricle.
In data set [13] the test system is Heart. Description: Cardiotoxicity in Langendorff-perfused Sprague-Dawley rat heart assessed as intraventricular conduction time at 0.1 uM (reference value: 12.33 +/- 0.29 ms). The data set is classed as toxicity, tissue-based, Cardiac ventricle.
Data set [14] relates to Heart. Briefly: Cardiotoxicity in Langendorff-perfused Sprague-Dawley rat heart assessed as corrected time duration of ventricular depolarization and repolarization at 1 uM (reference value: 159.41 +/- 11.21 ms). The class given is toxicity, tissue-based.
Data set [15] relates to Heart. Description: Cardiotoxicity in Langendorff-perfused Sprague-Dawley rat heart assessed as time duration of ventricular depolarization and repolarization at 10 uM (reference value: 71.61 +/- 4.21 ms). The class given is toxicity, tissue-based.
Data set [16] concerns Heart. Briefly: Cardiotoxicity in Langendorff-perfused Sprague-Dawley rat heart assessed as corrected time duration of ventricular depolarization and repolarization at 10 uM (reference value: 159.41 +/- 11.21 ms). The data set is classed as toxicity, tissue-based.
Data set [17] has as its system Heart. Briefly: Cardiotoxicity in Langendorff-perfused Sprague-Dawley rat heart assessed as cycle length time at 0.1 uM (reference value: 203.61 +/- 9.17 ms). The data set is classed as toxicity, tissue-based.
In data set [18] the test system is Heart. Description: Cardiotoxicity in Langendorff-perfused Sprague-Dawley rat heart assessed as cycle length time at 10 uM (reference value: 203.61 +/- 9.17 ms). The data set is classed as toxicity, tissue-based.
Data set [19] has as its system Heart. Description: Cardiotoxicity in Langendorff-perfused Sprague-Dawley rat heart assessed as intraventricular conduction time at 1 uM (reference value: 12.33 +/- 0.29 ms). The class given is toxicity, tissue-based, Cardiac ventricle.
Data set [20] has as its system Heart. Briefly: Cardiotoxicity in Langendorff-perfused Sprague-Dawley rat heart assessed as cycle length time at 1 uM (reference value: 203.61 +/- 9.17 ms). The data set is classed as toxicity, tissue-based.
The test system of data set [21] is Heart. Description: Cardiotoxicity in Langendorff-perfused Sprague-Dawley rat heart assessed as time duration of ventricular depolarization and repolarization at 1 uM (reference value: 71.61 +/- 4.21 ms). The data set is classed as toxicity, tissue-based.
Data set [22] has as its system Heart. Briefly: Cardiotoxicity in Langendorff-perfused Sprague-Dawley rat heart assessed as heart rate at 10 uM (reference value: 296.25 +/- 13.61 bpm). The class given is toxicity, tissue-based.
Data set [23] has as its system Heart. Briefly: Cardiotoxicity in Langendorff-perfused Sprague-Dawley rat heart assessed as corrected time duration of ventricular depolarization and repolarization at 0.01 uM (reference value: 159.41 +/- 11.21 ms). The class given is toxicity, tissue-based.
The test system of data set [24] is Heart. Description: Cardiotoxicity in Langendorff-perfused Sprague-Dawley rat heart assessed as time duration of ventricular depolarization and repolarization at 0.1 uM (reference value: 71.61 +/- 4.21 ms). The data set is classed as toxicity, tissue-based.
The species entered for data set [25] is Mus musculus. Description: animal or person. The note with it: NMRI, sc.
Description: Antipsychotic-like activity in sc dosed NMRI mouse assessed as reduction in PCP-induced locomotor activity dosed 15 to 30 mins before administration of methamphetamine measured for 60 mins
Data set [26] deals with Mus musculus. Briefly: Antipsychotic-like activity in NMRI mouse assessed as reduction in […]-induced locomotor activity at 1 mg/kg, sc dosed 15 to 30 mins before administration of methamphetamine measured for 60 mins. The data set is classed as functional, organism-based. Also on record: dose 1 mg/kg.
Data set [27] relates to Mus musculus. Description: Toxicity in mouse assessed as induction of memory impairment by measuring […] to enter dark compartment at 10 mg/kg, po administered 30 mins before training by passive avoidance test. The data set is classed as organism-based. On the set-up: dose 10 mg/kg, route oral. Particulars: in vivo, 0.5 h.
The species entered for data set [28] is Mus musculus. Particulars: in vivo, sc, 0.5 h.
Description: Effect on spontaneous exploratory locomotor activity in sc dosed NMRI mouse measured for 30 mins with activity counts each 5 mins
The species named for data set [29] is Mus musculus. Briefly: animal or person. Particulars: NMRI, sc. The source holds these as a separate data set.
Description: Antipsychotic-like activity in sc dosed NMRI mouse assessed as reduction in methamphetamine-induced locomotor activity dosed 15 to 30 mins before administration of methamphetamine measured for 60 mins
Data set [30] deals with Mus musculus. Description: Effect on spontaneous locomotor activity in mouse at 10 mg/kg, ip. The class given is ADME, organism-based. On the set-up: dose 10 mg/kg, route intraperitoneal. Particulars: in vivo.
In data set [31] the test system is Mus musculus. Description: Anxiolytic activity in mouse at 10 mg/kg, ip dosed 30 mins before test by marble burying method. The class given is functional, organism-based. On the set-up: dose 10 mg/kg.

As a reminder, the ED50 is the midpoint of the dose-response relation.

Activity calls are given as the source filed them. No cut-off for these calls is given here.

As to `Cl.O=C(NCCCCN1CCN(c2ccccc2)CC1)c1ccc2ncccc2c1`, the Time in the data set with Heart [1] turned out to be 44.51 ms; in the data set on Heart [3] it was 70.61 ms; in the data set on Heart [4], 13.17 ms; with Heart [6], 199.43 ms; in the data set on Heart [7], 41.51 ms; in the data set on Heart [9], 162.06 ms. Besides, the Time came out at 41.95 ms in the data set with Heart [10]; 42.32 ms in the data set with Heart [11]; 14.24 ms in the data set with Heart [12]; 12.7 ms in the data set on Heart [13]; 158.14 ms in the data set with Heart [14]; 73.96 ms with Heart [15]. Also, the Time in the data set with Heart [16] is on record as 159.76 ms; in the data set on Heart [17], 194.96 ms; with Heart [18], 218.07 ms; in the data set with Heart [19] it was 13.38 ms; in the data set on Heart [20] it was 204.53 ms; in the data set with Heart [21], 71.03 ms. For the same compound, the results for the Time with Heart [23] and in the data set on Heart [24] were 158.61 ms and 71.4 ms, respectively. Moreover, the Activity is recorded as 302.2 bpm in the data set on Heart [2], 308.58 bpm in the data set with Heart [5], 297.7 bpm with Heart [8] and 280.67 bpm in the data set on Heart [22].

In the case of `CN1CCN(C2=Nc3cc(Cl)ccc3Nc3ccccc32)CC1` [CLOZAPINE], the ED50 in the data set listed under Mus musculus [25] was determined as 2.5 mg/kg; in the data set listed under Mus musculus [28], 2.4 mg/kg; in the data set filed under Mus musculus [29] it was 1.1 mg/kg. Besides, the result with Mus musculus [26] was Active. For the same compound, the Activity entry with Mus musculus [27] was “Toxic”.

As for `CNC1=Nc2ccc(Cl)cc2C(c2ccccc2)=[N+]([O-])C1.Cl` [CHLORDIAZEPOXIDE HYDROCHLORIDE], in the data set on Mus musculus [30], the Activity entry was “Non-toxic”. For the same compound, the outcome in the data set on Mus musculus [31] was Active.
